Patent US20050112573A1, “Method of detecting toxic substance” (priority 2001, published 2005)

Tested on: yeast genes (level of expressed mRNA)
Experiment: DNA chip analysis of expressed mRNA of yeast genes after 2 h culture with a toxic chemical substance
Format: cell-based, Saccharomyces cerevisiae S288C
Settings: for The level of expressed mRNA in the presence of chemical substance/ (ratio to absence of chemical substance): stress protein genes, DNA chip
Method in brief: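 Values are treated-to-control fluorescence ratios from a whole-yeast-genome DNA chip (65° C, over 12 h hybridization) using Cy3/Cy5-labelled cDNA from mRNA. Log-phase S288C cells in YPD at 25° C were exposed 2 h to a toxicant at sublethal, growth-inhibiting concentration.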

C=CC=O [(14), acrolein]
3.6: The level of expressed mRNA in the presence of chemical substance/The level of expressed mRNA in the absence of chemical substance (yeast gene YBL078C)
0.8: The level of expressed mRNA in the presence of chemical substance/absence: YPL221W (gene YPL221W) | The level of expressed mRNA in the presence of chemical substance/ (in its absence), gene YBR036C (yeast gene YBR036C, ratio of DNA chip fluorescence intensity to that without chemical substance) | The level of expressed mRNA in the presence of chemical substance/ in its absence, gene YDL078C (yeast gene YDL078C, energy system protein genes, 2 h culture with the chemical, ratio to control without chemical)
1.9: The level of expressed mRNA in the presence of chemical substance/The level of expressed mRNA in the absence of chemical substance (yeast gene YBL043W)
2.0: The level of expressed mRNA in the presence of chemical substance/The level of expressed mRNA in the absence of chemical substance (yeast gene YBL041W)
2.3: The level of expressed mRNA in the presence of chemical substance/ (ratio to absence), gene YBL038W (yeast gene YBL038W, mitochondria-located protein genes, 2 h culture with chemical)
1.5: level of expressed mRNA in the presence of chemical substance/in its absence (gene YPR026W)
1.2: The level of expressed mRNA in the presence of chemical substance/absence: YPL152W (gene YPL152W) | level of expressed mRNA in the presence of chemical substance/in its absence (gene YPR006C) | The level of expressed mRNA in the presence of chemical substance/ (ratio to absence), gene YBR122C (yeast gene YBR122C, mitochondria-located protein genes, 2 h culture with chemical) | The level of expressed mRNA in the presence of chemical substance/The level of expressed mRNA in the absence of chemical substance (yeast gene YCL027W)
2.2: The level of expressed mRNA in the presence of chemical substance/The level of expressed mRNA in the absence of chemical substance (yeast gene YDL008W)
1.4: The level of expressed mRNA in the presence of chemical substance/absence: YPL188W (gene YPL188W) | The level of expressed mRNA in the presence of chemical substance/absence: YPL225W (gene YPL225W) | The level of expressed mRNA in the presence of chemical substance/absence: YPR049C (gene YPR049C) | The level of expressed mRNA in the presence of chemical substance/absence: YPR150W (gene YPR150W) | The level of expressed mRNA in the presence of chemical substance/The level of expressed mRNA in the absence of chemical substance (yeast gene YBL005W-A) | The level of expressed mRNA in the presence of chemical substance/ in its absence, gene YDL067C (yeast gene YDL067C, energy system protein genes, 2 h culture with the chemical, ratio to control without chemical) | The level of expressed mRNA in the presence of chemical substance/ (ratio to absence), gene YDL067C (yeast gene YDL067C, mitochondria-located protein genes, 2 h culture with chemical)
1.0: The level of expressed mRNA in the presence of chemical substance/absence: YPL005W (gene YPL005W) | The level of expressed mRNA in the presence of chemical substance/absence: YPL150W (gene YPL150W) | The level of expressed mRNA in the presence of chemical substance/absence: YPL168W (gene YPL168W) | The level of expressed mRNA in the presence of chemical substance/absence: YPL180W (gene YPL180W) | The level of expressed mRNA in the presence of chemical substance/absence: YPL249C (gene YPL249C) | The level of expressed mRNA in the presence of chemical substance/absence: YPR169W (gene YPR169W) | The level of expressed mRNA in the presence of chemical substance/The level of expressed mRNA in the absence of chemical substance (yeast gene YAR010C) | The level of expressed mRNA in the presence of chemical substance/ (ratio to absence of chemical substance) (yeast gene YBL093C)
1.3: The level of expressed mRNA in the presence of chemical substance/absence: YOR325W (gene YOR325W) | The level of expressed mRNA in the presence of chemical substance / the level in the absence of chemical substance, yeast gene YPL138C (gene YPL138C, DNA chip fluorescence ratio to control without chemical, 2 hours culture with chemical, growth-inhibiting non-lethal concentration) | The level of expressed mRNA in the presence of chemical substance/ (ratio to absence), gene YCR046C (yeast gene YCR046C, mitochondria-located protein genes, 2 h culture with chemical)
1.7: The level of expressed mRNA in the presence of chemical substance / the level in the absence of chemical substance, yeast gene YPL107W (gene YPL107W, DNA chip fluorescence ratio to control without chemical, 2 hours culture with chemical, growth-inhibiting non-lethal concentration) | The level of expressed mRNA in the presence of chemical substance/absence: YPR061C (gene YPR061C) | The level of expressed mRNA in the presence of chemical substance/The level of expressed mRNA in the absence of chemical substance (yeast gene YCL020W) | The level of expressed mRNA in the presence of chemical substance/The level of expressed mRNA in the absence of chemical substance (yeast gene YCR071C)
2.4: The level of expressed mRNA in the presence of chemical substance/ (ratio to absence), gene YCR083W (yeast gene YCR083W, mitochondria-located protein genes, 2 h culture with chemical) | The level of expressed mRNA in the presence of chemical substance/ (ratio to absence of chemical substance) (yeast gene YCR083W)
1.1: level of expressed mRNA in the presence of chemical substance/in its absence (gene YOR336W) | The level of expressed mRNA in the presence of chemical substance/absence: YPL260W (gene YPL260W) | level of expressed mRNA in the presence of chemical substance/in its absence (gene YPL265W) | The level of expressed mRNA in the presence of chemical substance/absence: YPR093C (gene YPR093C) | The level of expressed mRNA in the presence of chemical substance/absence: YPR148C (gene YPR148C) | The level of expressed mRNA in the presence of chemical substance/absence: YPR158W (gene YPR158W)
0.9: The level of expressed mRNA in the presence of chemical substance/absence: YOR267C (gene YOR267C) | level of expressed mRNA in the presence of chemical substance/in its absence (gene YOR347C) | The level of expressed mRNA in the presence of chemical substance/absence: YPL151C (gene YPL151C) | The level of expressed mRNA in the presence of chemical substance/absence: YPR146C (gene YPR146C) | The level of expressed mRNA in the presence of chemical substance/absence: YPR174C (gene YPR174C) | The level of expressed mRNA in the presence of chemical substance/ (ratio to absence of chemical substance) (yeast gene YBR044C) | The level of expressed mRNA in the presence of chemical substance/The level of expressed mRNA in the absence of chemical substance (yeast gene YBR214W) | The level of expressed mRNA in the presence of chemical substance/ (in its absence), gene YBR298C (yeast gene YBR298C, ratio of DNA chip fluorescence intensity to that without chemical substance) | The level of expressed mRNA in the presence of chemical substance/The level of expressed mRNA in the absence of chemical substance (yeast gene YCR088W)
3.7: The level of expressed mRNA in the presence of chemical substance/The level of expressed mRNA in the absence of chemical substance (yeast gene YCR004C)
1.6: level of expressed mRNA in the presence of chemical substance/in its absence (gene YPL017C) | The level of expressed mRNA in the presence of chemical substance/absence: YPR172W (gene YPR172W) | The level of expressed mRNA in the presence of chemical substance/ (ratio to absence), gene YBR251W (yeast gene YBR251W, mitochondria-located protein genes, 2 h culture with chemical)
0.6: level of expressed mRNA in the presence of chemical substance/in its absence (gene YOR344C)
